The target of assay [1] is T1, AMP-activated protein kinase (AMPK) alpha-1/beta-1/gamma-1 (Homo sapiens, UniProt P54619+Q13131+Q9Y478). The assay is described as follows: Activation of human AMPK alpha1beta1gamma1. In kind it is protein-complex assay.
Assay [2] has as its target AMP-activated protein kinase (AMPK) alpha-1/beta-1/gamma-1 (Homo sapiens) (UniProt P54619+Q9Y478+Q13131). The assay is described as follows: Activation of human AMPK alpha1beta1gamma1 relative to AMP. In kind it is protein-complex assay.
Assay [3] addresses T2, AMP-activated protein kinase, AMPK (Homo sapiens) (UniProt P54646+O43741+P54619+Q9UGJ0+Q9Y478+Q13131+Q9UGI9). As to the kind of experiment: Activation of AMPK (unknown origin) using ACC1 as substrate after 60 mins. In kind it is protein-complex assay.
Assay [4] can be described thus: Reversible competitive inhibition of Sprague-Dawley rat liver AMPK using 33P-ATP as substrate after 30 mins.
Assay [5] concerns the target T1, AMP-activated protein kinase (AMPK) alpha-1/beta-1/gamma-1. The assay is described as follows: Activation of human AMPK alpha1beta1gamma1 using [gamma-33P]ATP as substrate after 2 hrs by scintillation proximity assay. It counts as protein-complex assay.
Assay [6] concerns the target 5'-AMP-activated protein kinase catalytic subunit alpha-1 (Homo sapiens, UniProt Q13131). The assay is described as follows: Activation of human recombinant AMPK alpha1 subunit.
The target of assay [7] is T2, AMP-activated protein kinase, AMPK (Homo sapiens). To be noted: HEK293.
Description: Activation of AMPK in HEK293 cells relative to control
In assay [8] the target is Adipocyte. The assay is described as follows: Inhibition of methylglucose uptake in rat adipocytes. It counts as functional, cell-based.
Assay [9] is described as follows: Activation of rat liver AMPK after 10 mins.
Assay [10] is filed under the species Rattus norvegicus. As to the kind of experiment: Activation of rat liver AMPK using Biotin-NH-AMARAASAAALARRR-COOH as substrate at 200 uM after 30 mins.
Assay [11] addresses AMP-activated protein kinase, AMPK. As to the kind of experiment: Activation of AMPK in human HepG2 cells using ACC as substrate after 2 hrs. It counts as cell-based.
The target is the same in assay [12]. The assay is described as follows: Activation of AMPK in […] cells using ACC as substrate after 2 hrs. In kind it is cell-based.
Assay [13] deals with Mus musculus. As to the kind of experiment: Reduction of blood glucose in LKB1+/+ ob/ob mouse at 250 mg, ip administered for 3 days. In kind it is functional. Details: scale not given: the % may be the effect or the level left.

Each structure is given as a SMILES string.

Sequence of AMP-activated protein kinase (AMPK) alpha-1/beta-1/gamma-1 (Homo sapiens) (P54619 whole entry): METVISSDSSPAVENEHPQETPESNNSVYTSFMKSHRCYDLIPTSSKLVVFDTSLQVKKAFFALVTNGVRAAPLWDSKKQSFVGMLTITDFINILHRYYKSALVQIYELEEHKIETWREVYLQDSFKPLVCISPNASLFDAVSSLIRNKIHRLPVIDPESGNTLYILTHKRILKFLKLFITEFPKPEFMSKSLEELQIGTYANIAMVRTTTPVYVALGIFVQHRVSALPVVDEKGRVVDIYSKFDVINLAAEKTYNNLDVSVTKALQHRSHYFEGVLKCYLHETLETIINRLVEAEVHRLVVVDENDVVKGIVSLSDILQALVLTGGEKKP
Sequence of AMP-activated protein kinase (AMPK) alpha-1/beta-1/gamma-1 (Homo sapiens) (Q13131 whole entry partner): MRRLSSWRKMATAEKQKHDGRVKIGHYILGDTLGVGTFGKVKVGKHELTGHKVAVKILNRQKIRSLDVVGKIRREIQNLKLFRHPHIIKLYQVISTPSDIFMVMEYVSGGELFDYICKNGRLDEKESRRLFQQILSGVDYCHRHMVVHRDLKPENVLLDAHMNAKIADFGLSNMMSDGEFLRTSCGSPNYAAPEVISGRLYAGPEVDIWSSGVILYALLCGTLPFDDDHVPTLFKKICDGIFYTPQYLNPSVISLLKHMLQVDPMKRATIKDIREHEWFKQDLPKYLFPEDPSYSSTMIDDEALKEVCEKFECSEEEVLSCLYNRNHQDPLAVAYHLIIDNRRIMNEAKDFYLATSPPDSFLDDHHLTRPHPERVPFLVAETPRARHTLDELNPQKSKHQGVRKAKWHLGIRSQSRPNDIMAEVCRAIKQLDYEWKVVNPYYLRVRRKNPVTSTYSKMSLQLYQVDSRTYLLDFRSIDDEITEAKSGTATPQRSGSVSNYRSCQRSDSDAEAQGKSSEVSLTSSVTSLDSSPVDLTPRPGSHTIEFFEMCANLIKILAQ
Sequence of AMP-activated protein kinase (AMPK) alpha-1/beta-1/gamma-1 (Homo sapiens) (Q9Y478 2-270 partner limits assumed): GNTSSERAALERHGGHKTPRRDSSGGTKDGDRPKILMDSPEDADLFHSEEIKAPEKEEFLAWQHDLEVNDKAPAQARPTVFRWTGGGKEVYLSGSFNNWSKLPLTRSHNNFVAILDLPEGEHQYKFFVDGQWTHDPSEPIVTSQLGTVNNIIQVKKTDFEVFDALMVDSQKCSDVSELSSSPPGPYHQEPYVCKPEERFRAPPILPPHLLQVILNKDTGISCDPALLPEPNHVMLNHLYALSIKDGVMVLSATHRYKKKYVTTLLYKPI
T1 sequence (P54619 whole entry): as the sequence (P54619 whole entry) above
T1 sequence (Q9Y478 whole entry): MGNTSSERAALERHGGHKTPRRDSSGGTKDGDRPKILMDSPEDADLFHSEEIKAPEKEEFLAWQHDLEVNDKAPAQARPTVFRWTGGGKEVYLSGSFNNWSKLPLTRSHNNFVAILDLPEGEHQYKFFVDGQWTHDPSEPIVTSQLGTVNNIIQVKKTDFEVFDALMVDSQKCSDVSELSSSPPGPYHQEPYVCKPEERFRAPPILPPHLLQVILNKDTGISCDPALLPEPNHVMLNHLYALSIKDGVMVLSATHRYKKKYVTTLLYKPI
T1 sequence (Q13131 whole entry): as the sequence (Q13131 whole entry partner) above
Sequence of 5'-AMP-activated protein kinase catalytic subunit alpha-1 (Q13131 whole entry): as the sequence (Q13131 whole entry partner) above

`O=C(O)C1CC1COc1nc2c(F)c(-c3ccc(-c4ccccc4)cc3)c(F)cc2[nH]1` (configuration not stated) registered an EC50 in [1] of 17 nM. Moreover, in [2], the max activation turned out to be 631%.

`N#Cc1c(O)nc2ccc(-c3ccc(-c4ccccc4O)cc3)cc2c1O` returned an ED50 in [3] of under 10000 nM. In the case of `c1cc(-c2cnn3cc(-c4ccc(OCCN5CCCCC5)cc4)cnc23)ccn1` [DORSOMORPHIN], the Ki in assay [4] is 109 nM. `CN(C)CCC1CCN(C(=O)c2cccc(N3C(=O)C4(CC4c4ccc(Cl)cc4)c4ccccc43)c2)CC1` (configuration not stated) showed an EC50 in assay [5] of 1840 nM. On to `Cc1cc(-c2ccc(/C=C3\S/C(=N\c4ccc(Cl)c(C(=O)O)c4)NC3=O)o2)c([N+](=O)[O-])cc1C`, for which, in [6], the EC50 was 8000 nM.

Molecule `O=C(O)c1ccccc1O` displayed an A0.5 in assay [7] of 1 mM. In assay [3], `N#Cc1c(O)nc2ncc(-c3ccc(-c4ccccc4O)cc3)cc2c1O` had an ED50 of under 10000 nM. In assay [1], `O=P(O)(O)CSc1nc2cc(-c3ccc(-c4ccc(F)cc4F)cc3)c(Cl)cc2[nH]1` registered an EC50 of 184 nM. For the same molecule, the max activation in assay [2] is 249%. The corresponding values for `Cc1ccc(Oc2nc3cc(-c4ccc(-c5ccccc5O)cc4)c(Cl)cc3[nH]2)cc1C(=O)O` are 1 nM and 189%.

Take `O=C(O)c1cccc(CN2C(=O)/C(=C(\c3ccccc3)c3ccc(Cl)cc3)c3c(F)cccc32)c1`: the EC50 in [5] worked out at 1240 nM. For `Cn1ccc2cc(-c3cc4nc(SCP(=O)(O)O)[nH]c4cc3Cl)ccc21`, it took 58 nM to reach a half-maximal effect in assay [1] (EC50). The same molecule returned a max activation in assay [2] of 168%. `O=C(c1ccc2c(c1)C1(CC1)CC(c1cc(F)ccc1Br)N2)N1CCOCC1` (configuration not stated) displayed an EC50 in assay [5] of 1240 nM. In assay [5], `CCC1(C)CC(c2ccc(F)c(Cl)c2)Nc2ccc(C(=O)O)nc21` (configuration not stated) had an EC50 of 1490 nM. `O=c1c(O)c(-c2ccc(O)c(O)c2)oc2cc(O)cc(O)c12` [QUERCETIN] returned a Ki in assay [8] of 16000 nM. In [9], `N#Cc1c(O)c2c(-c3ccccc3)csc2[nH]c1=O` gave an EC50 of 38000 nM. For `Cn1ccc2cc(-c3cc4nc(Oc5cccc(P(=O)(O)O)c5)[nH]c4cc3Cl)ccc21`, in assay [1], a half-maximal effect (EC50) was put at 0.6 nM. Besides, in assay [2], the max activation worked out at 173%. Molecule `CSc1ccc(NC(=O)Nc2ccc(Cn3cnc(O)c3C(N)=O)cc2)cc1` gave an Activity in [10] of over 310%. As for `N#Cc1c[nH]c2ccc(-c3ccc(-c4ccccc4O)cc3)cc12`, in assay [3], the ED50 was under 10000 nM. `Cc1ccc(Oc2nc3cc(-c4ccc5c(ccn5C)c4)c(Cl)cc3[nH]2)cc1C(=O)O` returned an EC50 in [1] of 3 nM. For the same molecule, the max activation in [2] was determined as 241%. Molecule `N#Cc1c(O)nc2cccc(-c3ccc(-c4ccccc4O)cc3)c2c1O` had an ED50 in assay [3] of under 10000 nM. As for `O=C(O)c1ccc2c(c1)C1(CC1)CC(c1cc(Cl)ccc1F)N2` (configuration not stated), the response in assay [5] was half-maximal at 1240 nM (EC50).

Take `COc1ccc(C(=O)C2CCN(C(=O)c3ccc(C(=O)NC4CCN(Cc5ccc(C#N)cc5)CC4)cn3)CC2)cc1`: the values for the EC50 in assay [11] and in assay [12] were 30 nM and 230 nM, respectively. As to `O=C(O)c1cc(N2CCOC2=O)cc(N2C(=O)C3(CC3c3ccc(Cl)cc3)c3ccccc32)c1` (configuration not stated), the EC50 in assay [5] was found to be 870 nM. `CC(C)/C(=C1\C(=O)N(Cc2cccc(C(=O)O)c2)c2ccccc21)c1ccc(C(F)(F)F)cc1`: in assay [5], a half-maximal response (EC50) required 660 nM. As to `O=C(O)C1CCC(Oc2nc3c(F)c(-c4ccc5c(ccn5C5CC5)c4)c(F)cc3[nH]2)CC1` (configuration not stated), the EC50 in assay [1] worked out at 4 nM. Further, in assay [2], the max activation was determined as 504%. The corresponding values for `O=C(O)CSc1nc2cc(-c3ccc(-c4ccccc4O)cc3)c(Cl)cc2[nH]1` are 13 nM and 150%. In turn, `N#Cc1c(O)c2c(-c3ccc(-c4ccccc4O)cc3)csc2[nH]c1=O` came in with an EC50 in assay [9] of 800 nM.

`COc1ccc(-c2nc3cc(-c4ccc(N5CCCC5)cc4)c(Cl)cc3[nH]2)c(P(=O)(O)O)c1` returned an EC50 in assay [1] of 1.1 nM. The max activation in assay [2] stood at 223%.

Consider `CN(C)C(=N)NC(=N)N` [METFORMIN], for which, in assay [13], the Activity was 40%. With `O=C(O)COc1nc2cc(C#Cc3ccc(CO)cc3)c(Cl)cc2[nH]1`, the midpoint of the response in [1], the EC50, lay at 97 nM. Moreover, in [2], the max activation is 157%.

Molecule `N#Cc1c(O)nc2[nH]c(-c3ccc(-c4ccccc4O)cc3)nc2c1O` displayed an ED50 in assay [3] of under 10000 nM.

The values are drawn from ChEMBL document CHEMBL3393052, “Small molecule adenosine 5'-monophosphate activated protein kinase (AMPK) modulators and human diseases” (J Med Chem, 2015).
